The source of these data is patent US11319305B2, “Pyrimidine sulfamide derivative and preparation method and medical application thereof” (SHIJIAZHUANG SAGACITY NEW DRUG DEVELOPMENT CO., LTD., priority 2017, dated 2022).

Data set [1] deals with T1, CYP1A2 (Homo sapiens, UniProt P05177).
T1 construct: Mixed human liver microsomes (HLM) were purchased from Corning Inc; tissue Corning Inc; host or cells: pooled human liver microsomes
T1 sequence (P05177 1-516): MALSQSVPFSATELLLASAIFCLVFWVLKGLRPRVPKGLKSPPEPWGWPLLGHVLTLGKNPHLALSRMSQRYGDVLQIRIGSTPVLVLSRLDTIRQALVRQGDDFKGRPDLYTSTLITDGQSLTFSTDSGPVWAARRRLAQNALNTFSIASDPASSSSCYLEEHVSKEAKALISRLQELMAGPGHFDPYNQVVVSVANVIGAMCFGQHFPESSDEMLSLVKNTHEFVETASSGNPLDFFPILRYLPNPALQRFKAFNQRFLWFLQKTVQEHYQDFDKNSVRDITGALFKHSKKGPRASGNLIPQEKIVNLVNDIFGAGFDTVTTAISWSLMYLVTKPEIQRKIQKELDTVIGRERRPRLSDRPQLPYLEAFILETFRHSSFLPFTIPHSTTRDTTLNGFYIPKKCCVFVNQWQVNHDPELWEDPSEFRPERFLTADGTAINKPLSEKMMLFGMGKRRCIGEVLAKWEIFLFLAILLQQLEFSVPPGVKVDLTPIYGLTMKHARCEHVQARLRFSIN
The data set can be described thus: Human liver microsomal cytochrome P450 isozyme inhibition assay, CYP1A2. In kind it is in vitro ADME. The note with it: human liver microsomes. The protocol: Experimental Embodiment 4: Human Liver Microsomal Cytochrome P450 Isozyme Inhibition Assay The purpose of the assay was to evaluate the inhibitory activity of the samples against human liver microsomal cytochrome P450 isozyme (CYP1A2, CYP2C9, CYP2C19, CYP2D6 and CYP3A4) using the 5-in-1 probe substrate of the CYP isozyme. Mixed human liver microsomes (HLM) were purchased from Corning Inc. (Steuben, N.Y., USA) and stored below −80° C. before use. The test compound working solution which has been diluted into serial concentrations was added to an incubation system containing human liver microsomes, probe substrates and circulating system cofactors, and a control containing solvent without the test compound was used as the enzyme activity control (100%). The concentration of the metabolite produced by the probe substrate in the sample was determined using a liquid chromatography-tandem mass spectrometry (LC-MS/MS) method. Nonlinear regression analysis was performed on the average percent activity versus concentration of subjects using SigmaPlot (V.11). The IC50 value was calculated by a three-parameter or four-parameter inverse-logarithmic equation.
On the technique in general: Microsomes from liver hold many membrane-bound enzymes, among them those of drug oxidation.

Data set [2] concerns the target T2, Human Pregnane X Receptor (PXR) (Homo sapiens, UniProt O75469).
T2 construct: host or cells: DPX2 cells
T2 sequence (O75469 1-434): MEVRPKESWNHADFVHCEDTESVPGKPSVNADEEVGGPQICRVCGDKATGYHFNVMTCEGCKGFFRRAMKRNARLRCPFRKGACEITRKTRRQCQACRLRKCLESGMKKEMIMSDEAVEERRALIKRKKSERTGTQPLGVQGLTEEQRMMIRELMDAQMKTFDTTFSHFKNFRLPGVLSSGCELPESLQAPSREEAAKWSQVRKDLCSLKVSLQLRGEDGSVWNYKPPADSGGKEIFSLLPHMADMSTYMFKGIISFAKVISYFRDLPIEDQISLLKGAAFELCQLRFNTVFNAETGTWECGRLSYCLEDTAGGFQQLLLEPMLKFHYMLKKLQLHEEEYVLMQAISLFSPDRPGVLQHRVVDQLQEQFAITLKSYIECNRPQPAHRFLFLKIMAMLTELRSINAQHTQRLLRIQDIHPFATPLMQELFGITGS
Put plainly: Human pregnane X receptor (PXR) assay, induction of PXR-mediated CYP3A expression in DPX2 cells. In kind it is cell-based. How it is done: Experimental Embodiment 3: Human Pregnane X Receptor (PXR) Assay
The effect of the compounds on the induction of PXR-mediated CYP3A expression was evaluated.
1. DPX2 cells were thawn under sterile conditions.
2. DPX2 cell solution was distributed in 96-well plate (100 μL/well), and the plate was placed in a 5% CO2/37° C. incubator overnight.
3. Quantitative feeding medium was thawn in a 37° C. water bath. Positive control rifampin was thawn at room temperature. A series of test compounds and positive control dilutions were prepared in quantitative feeding medium. The cells were carefully aspirated from each wells without disturbing the cells during aspiration and the medium was discarded. 100 μL of each test compound concentration was transferred to pre-labeled wells. The operation of the positive control group and the blank group were the same. The plate was placed back into the incubator for 24 hours exposure.
(1) 7 μL of Luciferin-IPA was added to […] feeding medium, the mixture was mixed by inverting, and poured into a Luciferin-IPA reagent tank.
(2) The 96-well plate was taken out from the incubator, and the media was carefully aspirated from each wells. 50 μL of the Luciferin-IPA reagent was added to each wells, and the cell plate was placed back into the incubator for 60 minutes.
(3) During incubation, the P450-Glo buffer was poured into the Luciferin detection reagent, and the mixture was mixed by inverting.
(4) The 96-well plate was taken out from the incubator, and 40 μL of solution from each well was transferred into the corresponding white 96-well plate, and the corresponding position of each wells was consistent with the original cell plate. […]
(8) After incubation with Luciferin detection reagent for 20 minutes, a photometer (set 1-5 seconds. Readout Time) was used to measure the luminescence of each wells of the white 96-well plate. […]
(10) After incubating for 60 minutes at 37° C., the original 96-well plate was taken out of the incubator. The reader was set to the fluorescence mode, the excitation wavelength was set to 380-400 nm, the emission wavelength was set to 505 nm, and the fluorescence intensity of each wells was measured.
(11) The cell plate was taken out of the enzyme reader, and 100 μL of ONE-Glo™ detection reagent was added to each wells. […]
(12) The enzyme reader was set to 5 seconds for pre-shaking and 5 seconds for wells reading, and the fluorescence intensity in each hole was measured. […]
The positive control was rifampicin, six concentrations were tested in each experiment. The data was analyzed using Prism to generate a concentration-response curve and the EC50 value of the compound was calculated.

Consider `COCCNS(=O)(=O)Nc1ncnc(OCCOc2ncc(Br)cn2)c1-c1ccc2c(c1)OCO2` [WX013], for which, in data set [1], the IC50 – broadly, the concentration that gives 50% inhibition – was 47 µM. The “induction effect on PXR-mediated CYP3A expression (in words)” value in data set [2] is “relatively weak induction effect”. Further, the EC50 (usually the concentration that produces a half-maximal response) in data set [2] (DPX2 cells, 24 hours exposure, ± is calculation error of simulation curve, read-out: EC50, induction effect on PXR-mediated CYP3A expression) was 27.6 ± 1.33 µM.
